Test results published in patent publication US20240374631A1, “A COMPOSITION FOR IMPROVING GUT MICROBIOTA, BEHAVIOURAL PATTERN, ALPHA-SYNUCLEIN LEVELS, SLEEP PATTERN AND/OR SERUM MELATONIN” (GN Corporation Co Ltd, priority 2021, published 2024).

Test system: gut microbiota
Assay: Gut microbiome analysis (16S rRNA sequencing of fecal samples) in STAM model of NASH
Type: in vivo, C57BL/6J mice
Text: The study is reported in accordance with Animal Research: Reporting of In Vivo Experiments (ARRIVE) guidelines. C57BL/6J mice were obtained from Japan SLC, Inc. (Japan). All animals used in this study were cared for under the following guidelines: Act on Welfare and Management of Animals (Ministry of the Environment, Japan, Act No. 105 of Oct. 1, 1973), standards relating to the care and management of laboratory animals and relief of pain (Notice No. 88 of the Ministry of the Environment, Japan, Apr. 28, 2006) and the guidelines for proper conduct of animal experiments (Science Council of Japan, Jun. 1, 2006). Protocol approvals were obtained from SMC Laboratories, Japan's IACUC (Study reference no: […] Mice were maintained in a specific pathogen-free (SPF) facility under controlled conditions of temperature (23±3° C.), humidity (50±20%), lighting (12-hour artificial light and dark cycles; light from 8:00 to 20:00) and air exchange. The STAM model of NASH was induced as previously described [D10]. Mice were given a single subcutaneous injection of 200 μg streptozotocin (STZ, Sigma-Aldrich, USA) solution 2 days after birth and fed with a high-fat diet (HFD, 57 kcal % fat, Cat #HFD32, CLEA Japan, Inc., Japan) from 4-9 weeks of age. All mice develop liver steatosis and diabetes and at […] mice had established steatohepatitis, histologically. Studygroups: There were five study groups, described below. Eight mice were included in each study group. Eight NASH mice were orally administered vehicle supplemented with AFO-202 Beta Glucan at a dose of 1 mg/kg in a volume of 5 mL/kg once daily from 6 to 9 weeks of age. Eight NASH mice were orally administered vehicle supplemented with Telmisartan at a dose of 10 mg/kg once daily from 6 to 9 weeks of age. Frequency: Fecal samples were collected at the 6 weeks of age (before administration) and 9 weeks of age (before sacrifice). Procedure: At 6 weeks of age, fecal samples were collected from each mouse by clean catch method. […] A sterile petri dish was placed on the bench. Gently massage the abdomen, position the bottom of mouse over a fresh petri dish, and collect 1-2 fecal pellets. At sacrifice, fecal samples were aseptically collected from cecum. The tubes with feces were placed on ice immediately. These tubes were snap frozen in liquid nitrogen and stored at -80° C. for shipping. In this analysis, the 16S rRNA sequence data acquired by the next-generation sequencer from the fecal […] was used to perform community analysis using the QIIME2 program for microbial community analysis. The raw read data in FASTQ format output from the next-generation sequencer was trimmed to remove adapter sequences and low QV regions that may be included in the data. Cutadapt was used to remove adapter sequences from DNA sequencing reads. Trimmomatic was used as read trimming tool for Illumina NGS data. The adapter sequence was trimmed using the adapter trimming program “cutadapt” if the Trimming of the region at the end of the read sequence overlapped the corresponding sequence by at least one base (mismatch tolerance: 20%). When reads containing N were present in at least one of Read1 and Read2, both Read1 and Read2 were removed. Trimming of low QV regions was performed on the read data after processing using the QV trimming program “Trimmomatic” under the following conditions. The window of 20 bases is slid from the 5' side, and the area where the average QV is less than 20 is trimmed. After trimming, only the reads with more than 50 bases remaining in both Read1 and Read2 were taken as output. The microbial community analysis based on 16S rRNA sequence was performed on the sequence data trimmed in the previous section using the microbial community analysis program “QIIME2”. The annotation program “sklearn” included in QIIME2 is used to annotate the ASV (OTU) sequences. […]

With `CCCc1nc2c(C)cc(-c3nc4ccccc4n3C)cc2n1Cc1ccc(-c2ccccc2C(=O)O)cc1` [Telmisartan] the “Abundance Lachnospiraceae/[Ruminococcus]/gnavus” value (post, line r79) was 260, the “Abundance Bacteroidaceae/Bacteroides/—” value (post, line r80) was 1596 and the “Abundance S24-7/—/—” value (post, line r81) was 125. For the same molecule, the “Abundance Lachnospiraceae/[Ruminococcus]/gnavus” value (post, line r83) was 281, the “Abundance Ruminococcaceae/Oscillospira/—” value (post, line r84) was 393 and the “Abundance Alcaligenaceae/Sutterella/—” value (post, line r86) was 63. For the same molecule, the “Abundance S24-7/—/—” value (post, line r87) was 54, the “Abundance Other/Other/Other” value (post, line r90) was 0 and the “Abundance Lachnospiraceae/[Ruminococcus]/gnavus” value (post, line r91) was 325. For the same molecule, the “Abundance S24-7/—/—” value (post, line r92) was 153, the “Abundance Rikenellaceae/—/—” value (post, line r93) was 134 and the “Abundance Lachnospiraceae/[Ruminococcus]/gnavus” value (post, line r94) was 30. For the same molecule, the “Abundance Lachnospiraceae/—/—” value (post, line r95) was 359, the “Abundance Clostridiaceae/Other/Other” value (post, line r96) was 39 and the “Abundance Lachnospiraceae/—/—” value (post, line r97) was 239. The “Abundance Ruminococcaceae/Oscillospira/—” value (post, line r98) was 138, the “Abundance Enterococcaceae/Enterococcus/—” value (post, line r99) was 0 and the “Abundance Rikenellaceae/—/—” value (post, line r100) was 96. The “Abundance S24-7/—/—” value (post, line r101) was 79, the “Abundance Lactobacillaceae/Lactobacillus/reuteri” value (post, line r102) was 0 and the “Abundance Bacteroidaceae/Bacteroides/acidifaciens” value (post, line r103) was 127. The “Abundance Ruminococcaceae/Oscillospira/—” value (post, line r104) was 451, the “Abundance Enterobacteriaceae/Escherichia/coli” value (post, line r105) was 0 and the “Abundance Ruminococcaceae/Oscillospira/—” value (post, line r106) was 280. The “Abundance —/—/—” value (post, line r107) was 254, the “Abundance S24-7/—/—” value (post, line r108) was 92 and the “Abundance —/—/—” value (post, line r109) was 0. For the same molecule, the “Abundance Other/Other/Other” value (post, line r110) was 251, the “Abundance Lachnospiraceae/—/—” value (post, line r111) was 163 and the “Abundance Lachnospiraceae/[Ruminococcus]/gnavus” value (post, line r112) was 63. For the same molecule, the “Abundance Lachnospiraceae/—/—” value (post, line r113) was 117, the “Abundance Enterobacteriaceae/Klebsiella/Other” value (post, line r114) was 33 and the “Abundance Lachnospiraceae/—/—” value (post, line r115) was 187. For the same molecule, the “Abundance —/—/—” value (post, line r117) was 261, the “Abundance Lactobacillaceae/Lactobacillus/—” value (post, line r118) was 0 and the “Abundance Other/Other/Other” value (post, line r119) was 248. The “Abundance —/—/—” value (post, line r120) was 0, the “Abundance Erysipclotrichaceae/Allobaculum/—” value (post, line r121) was 59 and the “Abundance —/—/—” value (post, line r122) was 84. The “Abundance Lachnospiraceae/—/—” value (post, line r123) was 271, the “Abundance —/—/—” value (post, line r124) was 173 and the “Abundance Other/Other/Other” value (post, line r125) was 269. For the same molecule, the “Abundance Lactobacillaceae/Lactobacillus/reuteri” value (post, line r126) was 0, the “Abundance Ruminococcaceae/Oscillospira/—” value (post, line r127) was 273 and the “Abundance Lachnospiraceae/—/—” value (post, line r128) was 139. The “Abundance S24-7/—/—” value (post, line r129) was 125, the “Abundance S24-7/—/—” value (post, line r130) was 111 and the “Abundance Lachnospiraceae/—/—” value (post, line r131) was 119. The “Abundance S24-7/—/—” value (post, line r133) was 74, the “Abundance Lachnospiraceae/—/—” value (post, line r134) was 98 and the “Abundance —/—/—” value (post, line r135) was 376. The “Abundance Coriobacteriaceae/Adlercreutzia/—” value (post, line r136) was 30, the “Abundance —/—/—” value (post, line r137) was 118 and the “Abundance Clostidiaceae/Other/Other” value (post, line r138) was 0. The “Abundance Turicibacteraceae/Turicibacter/—” value (post, line r139) was 0, the “Abundance Ruminococcaceae/Ruminococcus/—” value (post, line r140) was 143 and the “Abundance Ruminococcaceae/Oscillospira/—” value (post, line r141) was 119. The “Abundance Dehalobacteriaceae/Dehalobacterium/—” value (post, line r142) was 268, the “Abundance Staphylococcaceae/Staphylococcus/Other” value (post, line r143) was 34 and the “Abundance Rikenellaceae/—/—” value (post, line r144) was 97. The “Abundance Lachnospiraceae/—/—” value (post, line r145) was 98, the “Abundance —/—/—” value (post, line r146) was 68 and the “Abundance Staphylococcaceae/Staphylococcus/sciuri” value (post, line r147) was 41. For the same molecule, the “Abundance —/—/—” value (post, line r148) was 0, the “Abundance Ruminococcaceae/Ruminococcus/—” value (post, line r149) was 124 and the “Abundance Coriobacteriaceae/Adlercreutzia/—” value (post, line r150) was 0. For the same molecule, the “Abundance Ruminococcaceae/Oscillospira/—” value (post, line r151) was 120, the “Abundance Lachnospiraceae/Clostridium/Other” value (post, line r152) was 40 and the “Abundance Lachnospiraceae/Coprococcus/—” value (post, line r153) was 85. The “Abundance Desulfovibrionaceae/—/—” value (post, line r154) was 148, the “Abundance —/—/—” value (post, line r155) was 103 and the “Abundance Lachnospiraceae/—/—” value (post, line r156) was 272. The “Abundance Dehalobacteriaceae/Dehalobacterium/—” value (post, line r157) was 239, the “Abundance Coriobacteriaceae/Adlercreutzia/—” value (post, line r158) was 0 and the “Abundance Lachnospiraceae/—/—” value (post, line r159) was 119. For the same molecule, the “Abundance Lachnospiraceae/—/—” value (post, line r160) was 14, the “Abundance S24-7/—/—” value (post, line r162) was 51 and the “Abundance Streptococcaceae/Streptococcus/—” value (post, line r163) was 44. The “Abundance Lachnospiraceae/[Ruminococcus]/gnavus” value (post, line r164) was 37, the “Abundance Lachnospiraceae/—/—” value (post, line r165) was 173 and the “Abundance Lachnospiraceae/—/—” value (post, line r166) was 10. The “Abundance Coriobacteriaceae/Adlercreutzia/—” value (post, line r167) was 8, the “Abundance Lachnospiraceae/—/—” value (post, line r168) was 57 and the “Abundance Erysipelotrichaceae/Clostridium/cocleatum” value (post, line r169) was 119. For the same molecule, the “Abundance Lachnospiraceae/—/—” value (post, line r171) was 81, the “Abundance Bacteroidaceae/Bacteroides/—” value (post, line r172) was 468 and the “Abundance Ruminococcaceae/Oscillospira/—” value (post, line r173) was 53. The “Abundance Ruminococcaceae/—/—” value (post, line r174) was 72, the “Abundance Lachnospiraceae/Other/Other” value (post, line r175) was 90 and the “Abundance Lachnospiraceae/Dorea/—” value (post, line r176) was 154. For the same molecule, the “Abundance Lachnospiraceae/—/—” value (post, line r177) was 94, the “Abundance S24-7/—/—” value (post, line r178) was 0 and the “Abundance Lachnospiraceae/—/—” value (post, line r179) was 138. The “Abundance Lactobacillaceae/Lactobaccilus/Other” value (post, line r180) was 0, the “Abundance —/—/—” value (post, line r181) was 48 and the “Abundance Ruminococcaceae/Oscillospira/—” value (post, line r182) was 101. For the same molecule, the “Abundance S24-7/—/—” value (post, line r184) was 71, the “Abundance [Mogibacteriaceae]/—/—” value (post, line r185) was 28 and the “Abundance Peptococcaceae/—/—” value (post, line r186) was 42. For the same molecule, the “Abundance —/—/—” value (post, line r187) was 40, the “Abundance —/—/—” value (post, line r188) was 213 and the “Abundance S24-7/—/—” value (post, line r189) was 19. For the same molecule, the “Abundance: Ruminococcaceae, Oscillospira, —” value (pre (baseline), line r191) was 97 and the “Abundance: Lachnospiraceae, [Ruminococcus], gnavus” value (pre (baseline), line r192) was 33.
